The test system of this test is HT1080 spheroids. Put plainly: 3-dimensional growth of HT1080 spheroids (BrdU / 7-AAD FACS, morphology). It is filed as cell-based, human. How it is done: Experimental Design. HT1080 cells grown as a monolayer were trypsinized and seeded onto a 0.75% agar noble base to prevent the cells from attaching to the bottom of the tissue culture plate and to allow/promote the cells to self-adhere and grow as 3-dimensional spheroids. […] The cells were incubated for 22 and 45 hours at 37° C., in the presence of a 10% CO2 atmosphere. Spheroids were visually checked daily for morphological changes and a medium was replenished two times per week. […] These pulse labeled spheroids were then harvested, washed and trypsinized (triple action solution, Gibco), pelleted and prepared for FACS analysis with a FITC BrdU Flow Kit, (BD Pharmingen). Cells were fixed and permeabilized with paraformadehyde and DNA stained with 7-AAD followed by incubation with an antibody which specifically recognizes […] incorporated into DNA. As described in Section 9.3.1.4. Cells were analyzed and sorted by 7-AAD signal (DNA content) to determine cell cycle phase, and BrdU content (percent actively synthesizing DNA).
Spheroids, prepared as above, were treated with either vehicle alone (0.5% DMSO v/v final) added to the media or a Compounds provided herein (10 nM or 50 nM final concentration) in media to which vehicle has been added.

As to `COc1ccc(C2c3[nH]c4ccc(Cl)cc4c3CCN2C(=O)Oc2ccc(Cl)cc2)cc1` (racemic) [Compound #10], where the note is “24 or 48 hours”, the “Cell cycle distribution of HT1080 spheroids” value is listed as “not affected” and the “Percentage of spheroid cells that incorporated BrdU” value is given as “not significantly altered”. Further, the Morphology of spheroids entry (maintained in the presence of compound for three weeks, data not shown) is given as “no obvious morphological changes”.
